Experimental data from patent US4576949A, “Use of 5,6,7,8-tetrahydroquinolines and 5,6-dihydropyrindines as leukotriene and lipoxygenase inhibitors and the novel 3-substituted compounds therein” (The Upjohn Company, priority 1984, dated 1986).

Test system: LTC/LTD
Assay: inhibition of leukotriene C and D (LTC/LTD) synthesis in vitro
Format: cell-based
Conditions: for activity at 0.1 µg: 0.1 μg, read-out: LTC/LTD inhibition, expressed as % of control, at 0.1; for activity at 1 µg / LTC/LTD inhibition, expressed as % of control, at 1.0: 1.0 μg; for activity at 1 µg: read-out: LTC/LTD inhibition, expressed as % of control, at 1.0; for activity at 10 µg: read-out: LTC/LTD inhibition, expressed as % of control, at 10 μg
From the text: Thus, the following TABLE II provides examples of the biological activity as determined by methods known in the art (see Bach, M. K., et al., 6,9-deepoxy-6,9-phenylimino-Δ-6,8-prostaglandin I1, (U-60,257). A New Inhibitor of Leukotriene C and D Synthesis: In Vitro Studies. Prostaglandins 23, 759-771, 1982.) for the present invention having formula II.
^a Values for inhibition are expressed as % of control.
LTC/LTD is leukotriene C or D.

CCOC(=O)c1cc2c(nc1C)C(CC(=O)CCCO)CCC2 (centres unmarked) [N; CHCO(CH2)3 OH; n 1; R8 CH3; R9 CO2 Et, 5,6,7,8-Tetrahydro-8-(5-hydroxy-2-oxopentyl)-2-methyl-3-quinolinecarboxylicacid ethyl ester]
activity at 0.1 µg: 19% | activity at 1 µg: 52% | activity at 10 µg (10 μg): 41%

CCOC(=O)c1cc2c(nc1C)C(=Cc1ccccc1)CCC2 [5,6,7,8-Tetrahydro-2-methyl-8-(phenylmethylene)-3-quinolinecarboxylic acid ethyl ester]
LTC/LTD inhibition, expressed as % of control, at 1.0: 96 % of control | activity at 1 µg: 101%

CCOC(=O)c1cc2c(nc1C)C(CCCCCO)CCC2 (centres unmarked) [5,6,7,8-Tetrahydro-8-(5-hydroxypentyl)-2-methyl-3-quinolinecarboxylic acid ethyl ester]
LTC/LTD inhibition, expressed as % of control, at 1.0: 140 % of control | activity at 1 µg: 121%

CC(=O)Oc1ccc(C=C2CCc3cccnc32)cc1 [4-[(5,6-Dihydro-7H-pyrindin-7-ylidene)methyl]phenol acetate]
activity at 1 µg: 88% | activity at 10 µg (10 μg): 45%

CCOC(=O)c1cc2c(nc1C)C(Cc1ccccc1)CCC2 (centres unmarked) [5,6,7,8-Tetrahydro-2-methyl-8-(phenylmethyl)-3-quinolinecarboxylic acid ethyl ester]
activity at 0.1 µg: 110%

CCOC(=O)c1cc2c(nc1C)C(CC1CCCO1)CCC2 (centres unmarked) [N; XIX; n 1; R8 CH3; R9 CO2 Et]
activity at 1 µg: 67% | activity at 10 µg (10 μg): 52%

CCOC(=O)c1cc2c(nc1C)C(=Cc1ccc(OC(C)=O)cc1)CCC2 [8-[[4-(Acetyloxy)phenyl]methylene]-5,6,7,8-tetrahydro-2-methyl-3-quinolinecarboxylic acid ethyl ester]
activity at 0.1 µg: 89% | activity at 1 µg: 78% | activity at 10 µg (10 μg): 34%

COC(=O)C=Cc1cc2c(nc1C)C(=Cc1ccccc1)CCC2 [3-[5,6,7,8-Tetrahydro-2-methyl-8-(phenylmethylene)-3-quinolinyl]-2-propenoic acid methyl ester]
activity at 1 µg: 99% | activity at 10 µg (10 μg): 117%

C(=C1CCCc2cccnc21)c1ccccc1 [N; XII wherein M is H; n 1; R8 H; R9 H, 5,6,7,8-Tetrahydro-8-(phenylmethylene)-quinoline]
activity at 1 µg: 105% | activity at 10 µg (10 μg): 33%

C(=C1CCc2cccnc21)c1cccs1 [N; XV; n 0; R8 H; R9 H, 5,7 -Dihydro-7-(2-thienylmethylene)-5H-1-pyrindine]
activity at 1 µg: 67% | activity at 10 µg (10 μg): 15%

CCOC(=O)c1cc2c(nc1C)C(=Cc1ccco1)CCC2 [N; XIV; n 1; R8 CH3; R9 CO2 Et, 8-(2-Furanylmethylene)-5,6,7,8-tetrahydro-2-methyl-3-quinolinecarboxylic acid ethyl ester]
LTC/LTD inhibition, expressed as % of control, at 10 μg (10 μg): 31 % of control | activity at 10 µg (10 μg): 16%
